Reference: patent publication US20070213291A1, “Therapeutically useful synthetic oligonucleotides” (priority 1999, published 2007)

How the values were obtained:
Format in all cases: cell-based
[1] = test system: Jurkat human leukemia T cells; experiment: Inhibition of Jurkat human leukemia T cell proliferation (MTT reduction); details: for % INHIBITION of Jurkat human leukemia T cell proliferation: 100 μg/ml sequence, 48 h, 2.5×10^5 cells/ml
Protocol: Cells were seeded in 6 (1 ml/well), 24 (0.5 ml/well) or 96 (0.1 ml/well) well flat-bottom microplates and were maintained at 37° C. in a 5% CO2 atmosphere. Unless stated otherwise, 2.5×10^5 cells/ml were incubated with 0 μg/ml (control) and 100 μg/ml (treated) of 2 to 45 base sequences containing A, C, G and T for 48 h.
MTT was measured at a wavelength of 570 nm using a multiplate spectrophotometer reader (ELX800, Bio-TEK Instruments Inc., Winooski, Vt.).
Jurkat human leukemia T cells are an atypical multi-drug resistant human suspension tumor cell model.

[2] = test system: Jurkat human leukemia T cells; experiment: Cell cycle stage in Jurkat cells (propidium iodide flow cytometry); details: Jurkat, 24 h, 100 μg/ml
Protocol: Cell cycle stage was determined using a […]™ PLUS DNA commercial kit (Becton Dickinson). Briefly, nuclei from cells were obtained by dissolving the cell membrane in a nonionic detergent, eliminating the cell cytoskeleton and nuclear proteins with trypsin, digesting the cellular RNA with RNase and stabilizing the nuclear chromatin with spermine. Propidium iodide was added to the cell nuclei and their fluorescence was analyzed in a flow cytometer equipped with electronic doublet discrimination capability (FACSCalibur, Becton Dickinson, San Jose, Calif.). Accumulation of cells in G0/G1, early S (SE), mid S (SM), late S (SL) or G2/M phases of the cell cycle was analyzed using MODFIT LT software (Verity Software House Inc., Topsham, Mass.).
Exponentially growing Jurkat human leukemia T cells (Table 28) and MCF-7 human breast cancer cells (5×10^5 cells/ml) (Table 29) were incubated for 24 h with 2, 6, 15, 18, 27 and 45 base sequences containing A, C, G and T. The cells were collected and centrifuged and cell cycle stage was determined.
Jurkat human cell leukemia T cells (1×10^6 cells/ml) were incubated for 24 h with 6 base GT SEQ ID NO:25, conplementary 6 base AC SEQ ID NO:79 and 6 base GT SEQ ID NO:25+6 base AC SEQ ID NO:79. GT SEQ ID NO:25 and AC SEQ ID NO:79 were hybridized by mixing the oligonucleotides (1:1) and heating for 10 minutes at 65° C. As controls, GT SEQ ID NO:25 and AC SEQ ID NO:79 were heated for 10 minutes at 65° C. (Table 30).

[3] = test system: THP-1 human acute monocytic leukemia cells; experiment: Cytokine production by THP-1 cells (ELISA); details: THP-1, 1×10^6 cells, 100 μg/ml, 48 h; for ↑ IL-12 (fold increase treated vs control cells): p70 complex and free p40
Protocol: Unless stated otherwise, 1×10^6 cells were incubated with 100 μg/ml of each of the sequences tested for 48 h at 37° C. in 5% CO2. Production of cytokines IL-6, IL-10, IL-12, IL-1beta and TNF-alpha was determined in pg/ml in 100 μl of culture supernatant using the appropriate commercial ELISA (BioSource, Camarillo Calif.). The IL-12 ELISA measures both IL-12 p70 complex and free p40 subunit. Results are expressed as the “fold” (×) increase in cytokine production by treated cells compared to control cells.
THP-1 human acute monocytic leukemia cells were incubated with 2, 3, 6, 9, 12, 14, 15 and 18 base GT sequences and production of the cyotkine IL-6 was determined (Table 35).
THP-1 human acute monocytic leukemia cells were incubated with 6 base GT, AG, CG, GG, AGT and CGT sequences and production of the cytokines IL-12 and IL-6 was determined (Table 36).
THP-1 human acute monocytic leukemia cells were incubated with 6 base GT sequences, having either an oxygen (phosphodiester) or a sulfur (phosphorothioate) as the nonbridging atom on the phosphate groups and production of the cytokine IL-12 was determined (Table 39).
THP-1 human acute monocytic leukemia cells were incubated with 6 base GT SEQ ID NO:25, having either an oxygen (phosphodiester) or a sulfur (phosphorothioate) as the nonbridging atom on the phosphate groups and production of the cytokine IL-12 was determined (Table 40).

Molecule | % INHIBITION of Jurkat human leukemia T cell proliferation [1] [%] | ↑ IL-6 (fold increase treated vs control cells) [3] [x] | ↑ IL-12 (fold increase treated vs control cells) [3] [x] | also measured
N.N.[Cl][Pt][Cl] [Cisplatin, reference compound] | – | – | – | % INHIBITION of Jurkat proliferation, Cisplatin 0.1 μg/ml ([1]; cisplatin 0.1 μg/ml, alone or with sequence at 1.0 μg/ml): 7%; % INHIBITION of Jurkat proliferation, Cisplatin 1.0 μg/ml ([1]; cisplatin 1.0 μg/ml, alone or with sequence at 1.0 μg/ml): 29%; % INHIBITION of Jurkat proliferation, Cisplatin 10.0 μg/ml ([1]; cisplatin 10.0 μg/ml, alone or with sequence at 1.0 μg/ml): 73%
AAAGAGGGGCATGACCCGGTGCGGGGGTTCTTGCACTCGGCATAG (unmodified DNA) [BCG A-1, reference compound] | 6 | 2.6 | 1.9 | % of cells in phase: G0/G1 [2]: 19.8%; % of cells in phase: G2/M [2]: 12.0%; % of cells in phase: SE [2]: 31.7%; % of cells in phase: SL [2]: 14.0%; % of cells in phase: SM [2]: 22.5%; Arrest (cell cycle) [2]: Mid SM
ACGAGACCACCATCGTCGAGGGCGCCGGTGACACCGACGCCATCG (unmodified DNA) [BCG A-6, reference compound] | 21 | 3.9 | 2.1 | –
ACGCCGACGTCGTCTGTGGTGGGGTGTCTACCGCCAACGCGACGG (unmodified DNA) [BCG M-3, reference compound] | 22 | 2.5 | 1.6 | –
CCGTGG [SEQ ID NO:34] | 37 | 10.8 | 0.0 | –
CGACTACAACGGCTGGGATATCAACACCCCGGCGTTCGAGTGGTA (unmodified DNA) [BCG ALPHA-1, reference compound] | 10 | 2.1 | 1.1 | –
CGGTGC [SEQ ID NO:38] | 16 | 6.9 | 0.2 | –
GAGTGA [SEQ ID NO:32] | 24 | 5.8 | 1.8 | –
GCCGAGAAGGTGCGCAACCTGCCGGCTGGCCACGGACTGAACGCT (unmodified DNA) [BCG A-7, reference compound] | 4 | – | 0.5 | –
GGAGGG (unmodified DNA) [SEQ ID NO:47] | 14 | – | – | –
GGGTCC [SEQ ID NO:35] | 20 | 21.3 | 1.9 | –
GGGTCT [SEQ ID NO:33] | 15 | 3.1 | 1.2 | –
GGGTGGG (unmodified DNA) [SEQ ID NO:63] | 28 | – | – | –
GGGTGGT (unmodified DNA) [SEQ ID NO:65] | 48 | – | – | –
GGGTTT [SEQ ID NO:40] | 31 | 14.0 | −1.2 | –
GGTT (unmodified DNA) [SEQ ID NO:58] | 37 | – | – | –
GTGGGG [SEQ ID NO:48] | 26 | – | – | –
GTGT (unmodified DNA) [SEQ ID NO:54] | 42 | – | – | –

Molecule | % INHIBITION of Jurkat human leukemia T cell proliferation [1] [%] | ↑ IL-6 (fold increase treated vs control cells) [3] [x] | ↑ IL-12 (fold increase treated vs control cells) [3] [x] | also measured
GTGTGTGTG (chemistry not given here) [SEQ ID NO:12] | 47 | 5.4 | – | –
GTGTGTGTGTGTGTG (unmodified DNA) [SEQ ID NO:16] | 58 | 2.6 | – | –
GTGTGTGTGTGTGTGTGTGTG (unmodified DNA) [SEQ ID NO:20] | 46 | – | – | –
GTGTGTGTGTGTGTGTGTGTGTGT [SEQ ID NO:22] | 56 | – | – | –
GTGTGTGTGTGTGTGTGTGTGTGTGTG (DNA, backbone not given here; further chemistry not fully specified) [SEQ ID NO:1 phosphorothioate] | – | – | – | % of cells in phase: G0/G1 [2]: 33.7%; % of cells in phase: G2/M [2]: 24.5%; % of cells in phase: SE [2]: 17.6%; % of cells in phase: SL [2]: 11.0%; % of cells in phase: SM [2]: 13.2%; Arrest (cell cycle) [2]: None
TCTCTCTCTCTCTCTCTCTCTCTCTCT (unmodified DNA) [SEQ ID NO:6] | 0 | – | – | –
TGGGTGG (unmodified DNA) [SEQ ID NO:64] | 55 | – | – | –
TGTG (unmodified DNA) [SEQ ID NO:59] | 52 | – | – | –
TGTGTGTGT (unmodified DNA) [SEQ ID NO:11] | 45 | 5.4 | – | –
TGTGTGTGTGTGTG (chemistry not given here) [SEQ ID NO:15] | 47 | 1.0 | – | proliferation, cell cycle arrest and apoptosis of Jurkat T cells (summary in words) ([1]; M. phlei murA derived sequences): did not inhibit proliferation of, induce cell cycle arrest in or induce apoptosis of Jurkat T cells
TGTGTGTGTGTGTGTGTGTGT (unmodified DNA) [SEQ ID NO:19] | 60 | – | – | –
TGTGTGTGTGTGTGTGTGTGTGTG [SEQ ID NO:21] | 54 | – | – | –
TGTGTGTGTGTGTGTGTGTGTGTGTG (DNA TGTGTGTGTGTGTGTGTGTGTGTGTGT; unmodified DNA) [SEQ ID NO:5] | 45 | – | – | –
TGTT (unmodified DNA) [SEQ ID NO:57] | 32 | – | – | –
TTGG (unmodified DNA) [SEQ ID NO:55] | 44 | – | – | –
TTGT (unmodified DNA) [SEQ ID NO:53] | 25 | – | – | –
TTGTGG [SEQ ID NO:39] | 35 | 6.6 | 0.0 | % INHIBITION of Jurkat proliferation at suboptimal concentration ([1]; 5.0 μg/ml of each 6 base sequence, alone or two together): 4%
